This is an account of results in PubChem BioAssay AID449764 (Southern Research Specialized Biocontainment Screening …, 2010).

The assay has as its system Mycobacterium tuberculosis H37Rv growth inhibition, no glycerol. The assay can be described thus: Confirmatory growth inhibition assay, Mycobacterium tuberculosis H37Rv, absence of glycerol (AID 449764).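 On all read-outs here: growth read after 7 days of incubation.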 The following applies: for IC90: measured here: IC90 growth inhibition.

The structures appear in SMILES notation. Bounds are passed on as bounds.

Take `Cc1cccc(-c2ncc(CN3CCC(CO)(CCCc4ccccc4)CC3)cn2)c1`: the IC50 (as a rule, the concentration that gives 50% inhibition) was 48.5 µM and the IC90 (usually the point of the concentration-response curve where the effect stands at 90%) turned out to be 55.1 µM.

With `CCCc1cc(=O)n2[nH]c(C)c(-c3ccc(Cl)cc3)c2n1`, the IC50 is 11.5 µM and the IC90 amounted to 13.2 µM.

As to `COc1cccc(NC(=S)/C(=C(\[O-])c2cc(C)n(-c3ccccc3F)c2C)[n+]2ccc(N(C)C)cc2)c1`, the IC50 is 70.2 µM and the IC90 amounted to 90.3 µM. For `Cc1ccc(NC(=O)Cc2ccc(-c3ccccc3)cc2)nc1` the same measures were 86.6 µM and more than 100 µM. As for `CCOC(=O)C1=C(C)NC(SCC(=O)Nc2nc(C)cs2)=C(C#N)C1c1cccs1` (configuration not stated), the IC50 was 31.3 µM and the IC90 was determined as 49.8 µM. For the compound `Cc1nc(SCC(=O)NC2CCCCC2)[nH]c(=O)c1C`, the IC50 was less than 0.2 µM and the IC90 amounted to 0.57 µM.

For the compound `CCOC(=O)C1CCN(CC(O)COc2ccc(C(C)(C)CC)cc2)CC1` (configuration not stated), the IC50 was 23.2 µM and the IC90 was 26.5 µM. For the compound `NC(=O)c1ccc(N=Cc2ccc([N+](=O)[O-])s2)cc1`, the IC50 was 16.9 µM and the IC90 came to 19.8 µM. As for `Nc1ccc(S(=O)(=O)Nc2cnc3ccccc3n2)cc1`, the IC50 is 23.7 µM and the IC90 is 27.3 µM. Consider `COc1ccc(NC(=O)/C(Cl)=C(/Cl)S(=O)Cc2ccc(C)cc2)cn1` (configuration not stated), for which the IC50 was less than 0.2 µM and the IC90 is 0.36 µM. On to `COc1ccc(C=C2C=C(C(C)(C)C)C(=O)C(C(C)(C)C)=C2)cc1OC`, for which the IC50 is 4.94 µM and the IC90 is 7.13 µM. Take `CCCCC(=O)Nc1sc2c(c1C(=O)OCC)CCC(C=O)=C2Cl`: the IC50 is 38.8 µM and the IC90 was more than 100 µM.

Regarding `Cc1ccccc1-n1c(SCC(=O)N/N=C/c2c(C)nn(-c3ccccc3)c2C)nc2ccccc2c1=O`, the IC50 is 4.6 µM and the IC90 is 6.27 µM. Consider `CCCn1c(N2CCN(Cc3ccc(Cl)cc3)CC2)nc2ccccc21`, for which the IC50 was 25.2 µM and the IC90 amounted to 38 µM.

For the compound `CCOC(=O)c1c(NC(=O)CCl)sc(CN(C)C)c1-c1ccccc1`, the IC50 is 2.99 µM and the IC90 stood at 10.7 µM.

As to `CC(C)(C)NC(=O)C(=O)NNC(=O)c1ccc(C(C)(C)C)cc1`, the IC50 was 14.4 µM and the IC90 is more than 100 µM. As for `COc1ccc(CCNc2cc(-c3ccccc3)nc3ncnn23)cc1`, the IC50 is less than 0.2 µM and the IC90 came out at 27.3 µM.

For `CSCCOC(=O)COc1ccc(/C=N/NC(=O)c2c(Cl)cnn2C)cc1`, the IC50 was 19.6 µM and the IC90 was 37.7 µM.

For `CN1/C(=C\C(=O)COC(=O)c2ccc([N+](=O)[O-])o2)C(C)(C)c2ccccc21`, the IC50 is 20.9 µM and the IC90 was 30.3 µM.

Turning to `O=C1CCCC2=C1C1c3ccccc3C(=O)N1c1ccc(C(=O)c3ccccc3)cc1N2` (configuration not stated), the IC50 is 22 µM and the IC90 was 24.4 µM.

As to `CCCCCC(=O)N/N=C(\C)c1ccccn1`, the IC50 is 29 µM and the IC90 amounted to 38.9 µM. Turning to `CCCCNC(=S)Nc1ccc2cn[nH]c2c1`, the IC50 was 12 µM and the IC90 is 31.8 µM. `CCC(C)Nc1ccc(NC(C)CC)cc1` (configuration not stated): the IC50 was 2.31 µM and the IC90 was 2.97 µM. On to `Cc1cccc(OCC(=O)NNC(=O)c2cc3ccccc3oc2=O)c1`, for which the IC90 is more than 100 µM. In the case of `FC(F)(F)c1ccc(Nc2nnnc3ccccc23)cc1`, the IC50 was 48.8 µM and the 90% effect concentration (IC90) is 55.3 µM. Consider `COc1ccc(N/C=C/C(=O)c2sc(-c3ccccc3)nc2C)cc1`, for which the IC50 is 79.3 µM and the concentration for an effect of 90% (IC90) is more than 100 µM. `O=C(/C=C/Sc1ncn[nH]1)c1ccc(Cl)cc1`: the half-maximal inhibitory concentration (IC50) was 34.7 µM and the IC90 stood at 55.1 µM. For the compound `CCCCn1c(=O)c(C(=O)Nc2ncccc2C)c(O)c2ccccc21`, the IC50 is 17 µM and the IC90 is 22.1 µM. On the same counts, the results for `Cn1c(=O)c2c3c(sc2n2c(SCC(N)=O)nnc12)CC(C(C)(C)C)CC3` (configuration not stated) are 24.7 µM and 41.7 µM. As for `CCCCn1nc(C(=O)N[C@@H](CCSC)c2nc3ccccc3[nH]2)c2ccccc2c1=O`, the IC50 was 46.9 µM and the IC90 was more than 100 µM. For `COc1cc(/C=N/NC(=O)COc2ccc(C)cc2)ccc1OC(=O)c1cccs1` the same measures were 25.5 µM and 30.1 µM. Regarding `OC(COC(c1ccc(Cl)cc1)c1ccc(Cl)cc1)CN1CCc2ccccc2C1` (configuration not stated), the IC50 was 20.7 µM and the IC90 is 27.6 µM.

`Cc1ccc2cc(C)c(N3CCN(c4ccccn4)CC3)nc2c1`: the IC50 was 43.1 µM and the IC90 came to 46.7 µM.

Take `COc1ccc(CNC(=O)c2c(N)n(CCCN3CCOCC3)c3nc4ccccc4nc23)cc1`: the IC50 was 92.4 µM and the IC90 was more than 100 µM. As for `O=C1CCc2ccc(OCCCCN3CCN(c4cccc(Cl)c4Cl)CC3)cc2N1`, the IC50 is 33.3 µM and the IC90 was more than 100 µM. For `COc1ccc(C2=Nn3c(nnc3-c3ccccc3F)SC2)cc1OC1CCCC1`, the IC50 is 19.5 µM and the IC90 was determined as 25.4 µM.

With `CC(C)(C)c1cc(-c2nc(N)nc(N)n2)c(O)c(C(C)(C)C)c1`, the IC50 is 90.4 µM and the IC90 came to 96 µM. Regarding `NCCCn1c(C(=O)c2ccc(Cl)cc2)c2ccc([N+](=O)[O-])cc2[n+]1[O-]`, the IC50 is 34 µM and the IC90 was determined as 44.2 µM. Take `CC(C)CCNC(=O)C(c1ccc(O)cc1)N(C(=O)C1COc2ccccc2O1)c1cccc(O)c1` (configuration not stated): the IC50 is 71.6 µM and the IC90 is more than 100 µM. On the same counts, the results for `CS/C(Nc1cc(Cl)ccc1Cl)=C(/C#N)C(=O)c1ccco1` are 20.4 µM and more than 100 µM. Turning to `COc1ccc(-c2cc3nc(CCl)[nH]c(=O)c3s2)cc1`, the IC50 was 5.94 µM and the IC90 turned out to be 6.45 µM. As to `O=C1C(Cl)=C(N2CCOCC2)C(=O)N1c1cccc(Cl)c1`, the IC50 was 6.48 µM and the IC90 came to 12.6 µM. With `CC1(C)c2cc(Cl)ccc2-n2c1cc(O)c(-c1ccccc1)c2=O`, the IC50 is 8.61 µM and the IC90 was determined as 18.1 µM. Take `COc1ccc(NC(=O)CSC2=C(C#N)C(c3ccco3)C(C(=O)Nc3nc4ccccc4s3)=C(C)N2)cc1` (configuration not stated): the IC50 was 7.09 µM and the IC90 was 16.4 µM. `O=C(c1ccc(Br)cc1)C(CN1CCOCC1)c1ccccc1` (configuration not stated): the IC50 was 12 µM and the IC90 turned out to be 13.8 µM. With `COC(=O)[C@@H](NC(=O)O[C@@H]1C(=O)c2ccc(OC)cc2O[C@H]1c1cccc(C(F)(F)F)c1)C(C)C`, the IC90 is more than 100 µM.

With `N#CC(C#N)=C(N)CSc1cccc[n+]1[O-]`, the IC50 was 43.6 µM and the IC90 was 49 µM. `CCC1CSC(Nc2ccc(C(=O)/C=C/c3cccc(C)c3)cc2)=N1` (configuration not stated): the half-maximal inhibitory concentration (IC50) is 20.5 µM and the IC90 was 35.9 µM. Regarding `NNc1nc2ccc(Cl)cc2s1`, the IC50 was 62.4 µM and the IC90 came to 70.6 µM.

As to `CCOC(=O)Cn1c(C)c(Br)c(=O)c2cccc(C)c21`, the IC50 is 23 µM and the IC90 was determined as 26.6 µM. Turning to `Cc1ccc2[nH]c3c(N4CCN(Cc5ccccc5)CC4)ncnc3c2c1`, the IC50 is 25.1 µM and the IC90 is 46 µM.

Take `O=C(Nc1nnc(-c2ccccc2Cl)o1)c1nc2ccccc2s1`: the IC50 is 6.33 µM and the IC90 is 7.21 µM. On the same counts, the results for `C=CCN(CC=C)C(=S)NC(=O)c1ccc(-c2ccccc2)cc1` are 13.6 µM and 22.4 µM. For `Cc1ccc(NC(=O)CCl)cc1S(=O)(=O)N1CCCCCC1`, the IC50 was 10.1 µM and the IC90 came out at 14.8 µM. As to `O=c1c2cc(Br)cc(Br)c2oc2nc3n(c(=O)c12)CCCS3`, the IC50 is 10.4 µM and the 90% effect concentration (IC90) came out at 23.3 µM.

As to `Cc1[nH]n(S(=O)(=O)Cc2ccccc2)c(=O)c1N=Nc1ccccc1Cl`, the IC50 is 18.3 µM and the IC90 was found to be 28.7 µM. On to `CCOC(=O)c1ccc(NC(=O)C(C)Sc2nc(O)c(-c3ccccc3)c(=O)[nH]2)cc1` (configuration not stated), for which the IC50 is 18.4 µM and the concentration for an effect of 90% (IC90) is 35 µM. For `N#CC1=C(c2ccccc2)/C(=C/c2ccccc2)OC1=O` the same measures were 11.6 µM and 23.2 µM.

Regarding `O=[N+]([O-])c1ccc(CN2CCN(c3ccc(Cl)cc3)CC2)o1`, the IC50 is 0.44 µM and the IC90 was more than 100 µM. As to `CCCCCCC#Cc1ccc2c(c1)COc1c3ccccc3nn1-2`, the IC50 is 75.5 µM and the IC90 is more than 100 µM.

With `CN1CCN(c2ccc(S(=O)(=O)N3CCCCC3)cc2NC(=O)/C=C/c2ccc(Cl)c([N+](=O)[O-])c2)CC1`, the IC50 is 34.9 µM and the IC90 was found to be 47.6 µM. `CCCCNc1c(-c2ccc(SC3CCCCC3)c(OC)c2)nc2ccc(C)cn12`: the IC50 is 11.8 µM and the IC90 amounted to 13.5 µM. On to `O=[N+]([O-])c1ccc(N2CCCCC2)s1`, for which the IC50 was 13.7 µM and the IC90 was found to be 18.5 µM. Turning to `CCCOC(=O)CSc1nc(N2CCOCC2)c2c(c1C#N)CC(C)(C)OC2`, the half-inhibitory concentration (IC50) is 23.9 µM and the IC90 is 42.5 µM. `COc1ccc2nc(N=NC3=C(O)CC(C)(C)CC3=O)sc2c1`: the IC50 was 13.5 µM and the IC90 worked out at 17.2 µM.

Take `COc1cc(C#Cc2c(-c3cncn3C)n(C)c3ccc(-c4cnc(N5CCOCC5)nc4)cc23)cc(OC)c1`: the half-maximal inhibitory concentration (IC50) was 49.5 µM and the IC90 amounted to 55 µM. For `Cc1ccc(C2=NCCn3c2c2ccccc2[n+]3[O-])cc1`, the IC50 is 24.5 µM and the IC90 stood at 31.7 µM.

Turning to `Cc1ccc(Cl)cc1N1CCN(C(=O)C2CCC(=O)N(C3CCCCCC3)C2)CC1` (configuration not stated), the IC50 was 28.7 µM and the IC90 is 40.4 µM. For `Cn1c(CNc2ccccc2O)nc2ccccc21` the same measures were 3.05 µM and 3.36 µM. Turning to `NC(=O)c1cccc(-c2cc(Nc3ccc(OC(F)(F)F)cc3)ncn2)c1`, the IC50 was 24.5 µM and the IC90 was more than 25 µM.

Consider `CCC(=O)c1ccc(OCC(=O)OCC(=O)c2cc(C)n(C3CC3)c2C)cc1`, for which the IC50 is 19.2 µM and the IC90 was 40.7 µM. For `Cc1ccc(/C=C/C(=O)N2CC(C)CC(C)C2)o1` (configuration not stated), the IC50 is 36.3 µM and the IC90 worked out at 49.4 µM.
